This is an account of results in patent US9156822B2, “Functionally selective ligands of dopamine D2 receptors” (The University of North Carolina at Chapel Hill, priority 2010, dated 2015).

Series [1] deals with T1, 5HT2A (Homo sapiens (Human), UniProt P28223). As to the kind of experiment: 5HT2A FLIPR (Ca2+ mobilization). Format: cell-based. On the technique in general: A change in cytosolic calcium serves as a functional read-out for many receptors and channels.
Series [2] deals with T2, 5HT2C (Homo sapiens (Human), UniProt P28335). As to the kind of experiment: 5HT2C FLIPR (Ca2+ mobilization). Format: cell-based.
T2 sequence (P28335 33-458, species assumed): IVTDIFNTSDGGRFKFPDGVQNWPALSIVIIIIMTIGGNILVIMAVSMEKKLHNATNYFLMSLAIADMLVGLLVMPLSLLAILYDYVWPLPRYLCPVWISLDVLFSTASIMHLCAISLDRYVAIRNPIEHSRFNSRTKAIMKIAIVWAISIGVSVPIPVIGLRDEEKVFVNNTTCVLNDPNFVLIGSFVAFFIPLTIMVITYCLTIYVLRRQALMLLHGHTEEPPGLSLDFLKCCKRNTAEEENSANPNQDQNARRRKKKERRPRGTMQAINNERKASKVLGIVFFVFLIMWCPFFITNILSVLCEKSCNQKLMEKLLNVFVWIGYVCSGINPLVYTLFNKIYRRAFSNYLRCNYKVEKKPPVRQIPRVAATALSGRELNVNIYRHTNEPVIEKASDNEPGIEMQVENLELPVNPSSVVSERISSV
Series [3] concerns the target T3, 5HT1A (Homo sapiens (Human), UniProt P08908). The series is described as follows: 5HT1A binding.
The target of series [4] is T3, 5HT1A. The series is described as follows: 5HT1A cAMP biosensor. The series is classed as cell-based.
Series [5] addresses H1-histamine receptor (Homo sapiens (Human), UniProt P35367). The series is described as follows: H1 binding.
In series [6] the target is T4, 5HT2B (Homo sapiens (Human), UniProt P41595). As to conditions: read-out: 5HT2B/binding (Ki).
T4 sequence (P41595 whole entry, species assumed): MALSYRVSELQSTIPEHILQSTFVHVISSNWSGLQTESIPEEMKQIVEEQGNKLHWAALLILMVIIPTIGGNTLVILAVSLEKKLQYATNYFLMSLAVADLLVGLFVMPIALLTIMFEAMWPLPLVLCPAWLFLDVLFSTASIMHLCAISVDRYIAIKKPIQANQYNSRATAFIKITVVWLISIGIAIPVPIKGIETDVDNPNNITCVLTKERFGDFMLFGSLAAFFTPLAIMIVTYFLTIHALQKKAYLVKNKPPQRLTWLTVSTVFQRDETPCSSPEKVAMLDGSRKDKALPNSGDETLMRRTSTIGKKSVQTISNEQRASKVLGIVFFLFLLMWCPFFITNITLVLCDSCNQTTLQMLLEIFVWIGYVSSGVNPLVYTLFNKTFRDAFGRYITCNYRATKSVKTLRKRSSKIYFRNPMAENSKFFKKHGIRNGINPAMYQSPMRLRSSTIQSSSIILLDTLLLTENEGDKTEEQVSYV
Series [7] concerns the target T4, 5HT2B.
Series [8] deals with T2, 5HT2C. The settings on record: read-out: 5HT2C/binding (Ki).
For series [9], the system named is wild-type and β-arrestin-2 knockout mice. The settings on record: i.p., 5.0 mg/kg (haloperidol 2.0 mg/kg), 30 and 60 min.
In series [10] the target is T4, 5HT2B. The series is described as follows: cell-based.
For series [11], the target named is T4, 5HT2B. The series is described as follows: biochemical.
Series [12] deals with T2, 5HT2C. As to the kind of experiment: biochemical.
For series [13], the target named is T5, D2 receptors (Homo sapiens (Human), UniProt P14416). As to the kind of experiment: CHO-D2 radioligand binding assay ([3H]N-methylspiperone competition).
Target sequence in this assay (P14416 whole entry): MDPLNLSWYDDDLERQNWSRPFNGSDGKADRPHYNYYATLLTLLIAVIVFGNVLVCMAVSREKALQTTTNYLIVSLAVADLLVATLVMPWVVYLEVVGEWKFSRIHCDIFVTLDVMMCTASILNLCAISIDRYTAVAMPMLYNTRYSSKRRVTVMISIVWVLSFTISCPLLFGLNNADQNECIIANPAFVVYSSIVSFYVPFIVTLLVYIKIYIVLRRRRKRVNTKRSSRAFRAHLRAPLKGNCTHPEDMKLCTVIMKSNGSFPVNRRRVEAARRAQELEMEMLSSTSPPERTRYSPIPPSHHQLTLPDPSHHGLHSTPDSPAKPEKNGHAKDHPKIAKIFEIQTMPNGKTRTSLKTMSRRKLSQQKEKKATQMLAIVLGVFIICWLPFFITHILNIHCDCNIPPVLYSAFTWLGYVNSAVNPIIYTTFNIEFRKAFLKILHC
The target in series [14] is hD2 receptors (Homo sapiens (Human), UniProt P14416). The series is described as follows: D2 mediated cAMP GloSensor assay. As to cAMP (GloSensor) activity in words (merged EC50/Emax cell): key: neutral: Neutral ligands are either antagonists or are inactive. The series is classed as cell-based.
Chain of hD2 receptors (P14416 whole entry): as above
For series [15], the target named is T5, D2 receptors. The series is described as follows: D2 β-arrestin recruitment (Tango) assay. Format: cell-based. The protocol: The next day, cells were plated in white, clear-bottom, 384-well plates (Greiner, 10,000 cells/well, 50 μl/well) in DMEM containing 1% dialyzed fetal bovine serum. […] Data were normalized to vehicle (0%) and quinpirole (100%) controls and regressed using the sigmoidal dose-response function built into GraphPad Prism 4.0.
Target sequence in this assay (P14416 whole entry, looked up): as the sequence (P14416 whole entry) above
Background: Arrestin recruitment assays detect the binding of arrestin to an activated receptor.

The target of series [16] is hD2L dopamine receptor (Homo sapiens (Human), UniProt P14416). As to the kind of experiment: pERK high-content assay. As to conditions: for Emax: normalized to dopamine, read-out: p-ERK Emax. Format: cell-based.
Chain of hD2L dopamine receptor (P14416 whole entry): as above
Procedure: On day 1 of the assay, cells were seeded onto black clear-bottom tissue culture-treated 96-well plates (Greiner, BioOne). On day 2 of the assay, cells were washed with serum-free medium (Ham's F-12, penicillin and streptomycin) and incubated in 100 μL serum-free medium overnight.
Immunofluorescence: Automatic multichannel pipetters were used for liquid handling and multichannel vacuum manifolds for aspirations. Each tested concentration was typically measured in triplicate or quadruplicate. For concentration curves, half-log-dilutions were used. Drug dilutions were prepared in stimulation medium (serum-free medium, 100 mg/L ascorbic acid). 100 μM dopamine and 1 μM PMA (phorbol 12-myristate 13-acetate) were used as positive controls. Medium only was used as a negative control. Specificity of the response was confirmed by pretreatment for 5 min with 10 μM of the antagonist spiperone and in experiments using wild type CHO cells.
Cells were stimulated on day 3 by fast addition of 50 μL equilibrated 3× drug dilutions in a tissue culture incubator for 5 min. Plates were placed on ice, the medium was aspirated, and 100 μL/well of freshly prepared ice-cold fixing buffer (4% formaldehyde and 0.5 mM CaCl2 in PBS) solution was added. After 30 min fixing at room temperature, the plates were washed with 350 μL/well PBS/Ca (0.5 mM CaCl2 in PBS) and permeabilized for 20 min in 100 μL/well 0.3% Triton X-100 in PBS/Ca. […] Plates were washed three times with 250 μL/well washing buffer, post-fixed for 10 min in fixing buffer, washed with 250 μl PBS/Ca, filled with 200 μL/well PBS/Ca, sealed with transparent adhesive plate seals, and stored at 4° C.
The Alexa594 light path was used for the target signal, Alexa488 for whole cell staining, and Hoechst for the nuclear staining. Images were analyzed using the CellProfiler software. […] Concentration curves were analyzed in GraphPad Prism by fitting against a sigmoidal dose-response model and normalization to the dopamine curve.
Series [17] concerns the target D1 dopamine receptor (Homo sapiens (Human), UniProt P21728). As to conditions: read-out: D1/binding (Ki).
The target of series [18] is D3-dopamine receptor (Homo sapiens (Human), UniProt P35462). The settings on record: read-out: D3/binding (Ki).
Chain of D3-dopamine receptor (P35462 whole entry): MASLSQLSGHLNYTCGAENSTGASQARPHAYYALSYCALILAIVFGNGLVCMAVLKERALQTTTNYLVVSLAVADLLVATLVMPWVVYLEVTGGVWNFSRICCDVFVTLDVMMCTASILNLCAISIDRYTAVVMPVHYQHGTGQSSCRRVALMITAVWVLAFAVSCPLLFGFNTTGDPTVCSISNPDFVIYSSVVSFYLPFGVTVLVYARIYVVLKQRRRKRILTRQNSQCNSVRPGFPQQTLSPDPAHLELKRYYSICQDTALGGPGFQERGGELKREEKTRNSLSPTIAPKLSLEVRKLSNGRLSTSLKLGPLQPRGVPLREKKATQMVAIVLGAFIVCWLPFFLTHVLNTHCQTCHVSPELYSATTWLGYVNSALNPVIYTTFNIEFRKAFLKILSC
For series [19], the target named is D4 dopamine receptor (Homo sapiens (Human), UniProt P21917). As to conditions: read-out: D4/binding (Ki).
Chain of D4 dopamine receptor (P21917 whole entry): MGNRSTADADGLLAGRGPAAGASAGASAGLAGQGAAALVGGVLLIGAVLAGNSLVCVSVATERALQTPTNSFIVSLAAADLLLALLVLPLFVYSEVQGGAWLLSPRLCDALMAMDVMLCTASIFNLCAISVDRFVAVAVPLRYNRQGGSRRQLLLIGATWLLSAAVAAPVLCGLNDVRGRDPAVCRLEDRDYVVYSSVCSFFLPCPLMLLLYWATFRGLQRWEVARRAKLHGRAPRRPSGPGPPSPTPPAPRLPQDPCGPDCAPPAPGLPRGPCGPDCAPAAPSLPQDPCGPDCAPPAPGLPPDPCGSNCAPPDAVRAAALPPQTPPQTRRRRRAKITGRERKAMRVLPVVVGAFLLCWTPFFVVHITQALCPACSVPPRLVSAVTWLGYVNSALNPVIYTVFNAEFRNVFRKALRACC
Series [20] deals with D5 dopamine receptor (Homo sapiens (Human), UniProt P21918). As to conditions: read-out: D5/binding (Ki).
Chain of D5 dopamine receptor (P21918 whole entry): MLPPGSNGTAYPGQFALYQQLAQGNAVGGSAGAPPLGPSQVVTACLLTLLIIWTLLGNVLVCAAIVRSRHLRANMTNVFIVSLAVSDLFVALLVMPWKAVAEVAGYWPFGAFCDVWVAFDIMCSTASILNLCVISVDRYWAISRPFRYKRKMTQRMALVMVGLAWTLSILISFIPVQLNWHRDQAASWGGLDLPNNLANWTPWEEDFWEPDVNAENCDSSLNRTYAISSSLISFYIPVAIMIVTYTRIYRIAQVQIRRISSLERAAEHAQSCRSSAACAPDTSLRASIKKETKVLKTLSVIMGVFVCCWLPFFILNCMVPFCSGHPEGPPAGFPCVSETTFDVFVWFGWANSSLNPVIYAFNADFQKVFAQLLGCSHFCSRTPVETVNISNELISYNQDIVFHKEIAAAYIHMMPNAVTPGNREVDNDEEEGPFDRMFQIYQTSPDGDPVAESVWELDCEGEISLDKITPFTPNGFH
Series [21] addresses T1, 5HT2A. The settings on record: read-out: 5HT2A/binding (Ki).
For series [22] the following is noted: mouse.
Series [23] concerns C57BL/6 mice. As to conditions: i.p., 3 mg/kg D-amphetamine.
The subject of series [24] is wild-type and β-arrestin-2 knockout mice. The settings on record: i.p., 6 mg/kg PCP.
A short description of series [25]: in vivo. The settings on record: mouse.
Series [26] addresses T1, 5HT2A. The series is described as follows: biochemical.
Setting [27] is: normalized to quinpirole (100%).
[28] abbreviates: CHO-D2 membranes, [3H]N-methylspiperone, read-out: D2 Binding Ki ± SEM.

Each structure is given as a SMILES string. “Also recorded” adds a separate entry of the source. Read-outs that look alike come from different tables or passages of the source.

Chain of H1-histamine receptor (P35367 whole entry): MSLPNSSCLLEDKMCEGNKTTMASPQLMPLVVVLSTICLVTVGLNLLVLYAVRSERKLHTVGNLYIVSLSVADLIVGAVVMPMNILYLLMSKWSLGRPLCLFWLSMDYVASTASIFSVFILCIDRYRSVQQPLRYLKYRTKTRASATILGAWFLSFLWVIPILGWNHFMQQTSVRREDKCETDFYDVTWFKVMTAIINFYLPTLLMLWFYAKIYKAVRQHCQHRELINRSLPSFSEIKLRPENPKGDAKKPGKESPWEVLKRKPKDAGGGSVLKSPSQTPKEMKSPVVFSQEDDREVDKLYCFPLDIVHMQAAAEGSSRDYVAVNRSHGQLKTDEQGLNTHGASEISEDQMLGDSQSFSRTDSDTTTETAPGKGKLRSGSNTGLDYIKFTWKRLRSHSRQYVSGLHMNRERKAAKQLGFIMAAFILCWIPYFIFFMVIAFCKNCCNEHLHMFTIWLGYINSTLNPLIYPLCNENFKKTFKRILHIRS
Chain of D1 dopamine receptor (P21728 whole entry): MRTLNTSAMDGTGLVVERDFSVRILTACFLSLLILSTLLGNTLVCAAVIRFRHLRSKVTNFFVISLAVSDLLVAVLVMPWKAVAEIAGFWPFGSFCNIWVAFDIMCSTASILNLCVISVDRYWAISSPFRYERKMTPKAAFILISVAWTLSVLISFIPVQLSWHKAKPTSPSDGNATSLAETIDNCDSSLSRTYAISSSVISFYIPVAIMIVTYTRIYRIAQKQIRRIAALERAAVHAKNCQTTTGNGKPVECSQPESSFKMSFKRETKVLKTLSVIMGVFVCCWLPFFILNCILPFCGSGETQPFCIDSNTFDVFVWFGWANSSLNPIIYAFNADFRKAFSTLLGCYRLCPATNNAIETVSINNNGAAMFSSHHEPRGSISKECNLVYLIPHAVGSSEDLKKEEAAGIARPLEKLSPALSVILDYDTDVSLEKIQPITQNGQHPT

`O=C1CCc2ccc(OCCCCN3CCCN(c4cccc(Cl)c4Cl)CC3)cc2N1` [Compound 2, 7-(4-(4-(2,3-dichlorophenyl)-1,4-diazepan-1-yl)butoxy)-3,4-dihydroquinolin-2(1H)-one]: the “functional mode at 5HT2A” value in [1] is recorded as “antagonists”. The IC50 was 3600 nM in series [2] and 115 nM in series [10]. Also, the “functional mode at 5HT2C” value in series [2] is on record as “antagonists”. The Ki in [3] was 0.6 to 250 nM; in series [3] (read-out: 5HT1A/binding (Ki)), 60 nM; in series [5], 4.5 nM; in [6], 0.6 nM; in series [8], 115 nM; in [11] it was 0.6 to 250 nM. For the same molecule, the Ki in [12] was 0.6 to 250 nM. For the same molecule, the EC50 was above 1000 nM in series [4] and 2500 nM in series [4] (read-out: 5HT1A/cAMP (EC50)). In series [7], the “functional mode at 5HT2B” value is listed as “antagonists”. Moreover, the “catalepsy (latency to move, inclined screen test)” value (from here on “catalepsy”) in series [9] (wild-type mice, listed as UNC0006) was “do not induce catalepsy”; in series [9] (β-arrestin-2 knockout mice, listed as UNC0006), “induced catalepsy; also recorded: inducing catalepsy”.
With `O=C1CCc2ccc(OCCCCN3CCCN(c4cccc(Cl)c4Cl)CC3)nc2N1` [Compound 3, 7-(4-(4-(2,3-dichlorophenyl)-1,4-diazepan-1-yl)butoxy)-3,4-dihydro-1,8-naphthyridin-2(1H)-one], the Ki in series [13] (Table 7, read-out: D2/binding (Ki)) was below 10 nM; in [13] (read-out: D2/binding (Ki)), 2.6 nM; in series [13] (read-out: D2 Binding Ki ± SEM), 1.2 ± 0.1 nM; in series [3] (read-out: 5HT1A/binding (Ki)) it was 29 nM; in series [5], 6.1 nM; in series [17], 1040 nM. Moreover, the Ki is 11 nM in series [18]; 178 nM in series [19]; 513 nM in [20]; 7.4 nM in series [21]; 1.1 nM in series [6]; 99 nM in series [8]. Further, the Ki in [26], in series [11] and in series [12] was 0.6 to 250 nM throughout. Also, the EC50 in series [14] is 13 nM; in [15] (HTLA cells, read-out: β-arrestin (Tango) EC50) it was 3.3 nM; in [4] (read-out: 5HT1A/cAMP (EC50)) it was 1800 nM; in series [4] (text bound, read-out: 5HT1A EC50 (weak agonists)), above 1000 nM. Moreover, the Emax (usually the greatest response seen or fitted, relative to the assay's reference) in series [14] (read-out: cAMP (GloSensor) Emax) was -94%; in series [15] (setting [27]), 44%; in [16] it was below 5%. Besides, in series [15], the “β-arrestin (Tango) % activ at 1 μM” value came out at 11%. The IC50 in [1] came to 660 nM; in [2] (read-out: 5HT2C/FLIPR (IC50)), 2200 nM; in series [10], 76 nM. Moreover, the “functional mode at 5HT2A” value in series [1] is listed as “antagonists”. For the same molecule, the “functional mode at 5HT2C” value in [2] is given as “antagonists”. Further, the “functional mode at 5HT2B” value in series [7] is “antagonists”. Also, the “brain exposure level, fold lower compared to aripiprazole” value in [22] is listed as “about 3 fold”. In addition, the “Brain/Plasma Ratio” value in series [22] (0.08 h) is reported as 0.57 mL/g; in series [22] (0.5 h), 1.12 mL/g; in series [22] (1 h), 1.29 mL/g; in series [22] (2 h) it was 3.67 mL/g; in series [22] (4 h), 12.26 mL/g; in series [22] ([…]), 0.80 mL/g. The “antipsychotic-like activity in D-amphetamine-induced hyperlocomotion” value in [23] is “potent antipsychotic-like activity”. The “antipsychotic-like activity in PCP-induced hyperlocomotion” value in [24] (wild-type mice) is “potent antipsychotic-like activity”; in series [24] (β-arrestin-2 knockout mice) it was “attenuated”. The “catalepsy” value in series [9] (wild-type mice, listed as UNC9975) is “do not induce catalepsy”; in series [9] (β-arrestin-2 knockout mice, listed as UNC9975) it was “induced catalepsy; also recorded: inducing catalepsy”. Besides, the AUC(0-inf) (as a rule, total exposure, with the tail of the curve extrapolated) in [25] (brain) was 329 ng·h/mL; in series [25] (plasma) it was 61.5 ng·h/mL. The AUC(0-t) (commonly the area under the concentration-time curve up to a stated or last time point) in series [25] (brain) amounted to 267 ng·h/mL; in series [25] (plasma), 59.9 ng·h/mL. The Cmax (as a rule, the highest concentration seen after dosing) in series [25] (brain) was 49.8 ng/mL; in [25] (plasma), 70.6 ng/mL. Moreover, the Tmax (as a rule, the time at which the peak concentration occurs) in [25] (brain) amounted to 15 min; in series [25] (plasma), 4.8 min. Further, the results for the concentration at 0.08 h in series [25] (brain) and in series [25] (plasma) were 37.8 ng/g and 70.6 ng/mL, respectively. The concentration at 0.5 h in series [25] (brain) amounted to 27.2 ng/g; in series [25] (plasma) it was 23.7 ng/mL. Further, the concentration at 1 h in [25] (brain) was found to be 31.2 ng/g; in series [25] (plasma) it was 24.6 ng/mL. In addition, the concentration at 2 h in [25] (brain) was found to be 23 ng/g; in series [25] (plasma), 6.3 ng/mL. Besides, the concentration at 4 h turned out to be 16.9 ng/g in [25] (brain) and 1.4 ng/mL in [25] (plasma). Moreover, the concentration at 8 h in series [25] (brain) is 9.9 ng/g; in series [25] (plasma) it was 0 ng/mL. Further, the concentration at 24 h in series [25] (brain) is 4.2 ng/g; in series [25] (plasma), 0 ng/mL. In addition, the half-life (usually how long it takes for the measured level to halve) in series [25] (brain) is 636 min; in series [25] (plasma), 48.6 min.
Consider `Clc1cccc(C2CCN(CCCOc3ccc4scnc4c3)CC2)c1Cl` [Compound 22, 5-(3-(4-(2,3-dichlorophenyl)piperidin-1-yl)propoxy)benzo[d]thiazole], for which, in series [13] (setting [28]), the Ki was 75 ± 12 nM. The “cAMP (GloSensor) activity in words (merged EC50/Emax cell)” value (from here on “cAMP … (merged EC50/Emax cell)”) in [14] is “neutral”. In addition, the EC50 came out at 51 nM in series [15] and 58 nM in [16] (CHO-hD2L cells, read-out: p-ERK EC50). Moreover, in series [15], the “β-arrestin (Tango) % activ at 1 μM” value is recorded as 59%. The “β-arrestin (Tango) Emax” value in series [15] (setting [27]) worked out at 100%. Moreover, the Emax in series [16] stood at 50%.
As for `O=C1NCCc2ccc(OCCCCN3CCC(c4cccc(Cl)c4Cl)CC3)cc21` [Compound 33, 7-(4-(4-(2,3-dichlorophenyl)piperidin-1-yl)butoxy)-3,4-dihydroisoquinolin-1(2H)-one], the melting point (usually the temperature of the solid-liquid transition) fell in the range of 113 to 114 °C. For the same molecule, the Ki in series [13] (setting [28]) amounted to 20 ± 3 nM. Besides, the “cAMP … (merged EC50/Emax cell)” value in series [14] was “neutral”. Further, in series [15], the EC50 was 24 nM and the “β-arrestin (Tango) % activ at 1 μM” value amounted to 26%. In addition, the Emax in [15] (setting [27]) amounted to 64%.
For `Clc1cccc(N2CCN(CCCCOc3ccc4scnc4c3)CC2)c1Cl` [Compound 36, 5-(4-(4-(2,3-dichlorophenyl)piperazin-1-yl)butoxy)benzo[d]thiazole], the melting point is 93 to 94.5 °C. Also, the Ki in series [13] (setting [28]) came out at 17 ± 3 nM. Moreover, in series [14], the “cAMP … (merged EC50/Emax cell)” value is given as “neutral”. For the same molecule, in [15], the EC50 amounted to 59 nM and the “β-arrestin (Tango) % activ at 1 μM” value was found to be 13%. In addition, in series [15] (setting [27]), the Emax was 64%.
Turning to `O=C(CCCN1CCC(O)(c2ccc(Cl)cc2)CC1)c1ccc(F)cc1` [haloperidol, reference compound], the “catalepsy” value in [9] (β-arrestin-2 knockout mice) was “inducing catalepsy”.
